Reference: US8450522B2, “Conformationally constrained carboxylic acid derivatives useful for treating metabolic disorders” (Amgen Inc., priority 2008, dated 2013)
pEC50: −log10 of the molar value. “Also recorded” adds a separate entry of the source.

What was measured:
GPR40 [1] = biological target: T1, GPR40 (Homo sapiens, UniProt O14842); assay: Cell-based aequorin assay (CHO cells stably transfected with GPR40 and aequorin); set-up: expressed in transfected cells; details: activation of human GPR40, CHO cells, 0.01% HSA
Protocol: Briefly, the Aequorin assays were performed on doubly stable CHO cells expressing GPR40 and Aequorin DNA. […] The luminescence was recorded over a period of 20 seconds with a Microlumat luminometer (Berthold).
Cell-based aequorin assays were employed to characterize the modulatory activity of compounds on the GPR40 signaling pathway. In an exemplary assay, CHO cells were stably transfected with both GPR40 and Aequorin (Euroscreen). Cells were detached from the tissue culture dish with 2 mL of trypsin (0.25% (w/v)). Trypsinization was halted with 28 mL of Hanks Buffered Salt Solution containing 20 mM Hepes (H/HBSS) and 0.01% fatty acid-free human serum albumin (HSA). Coelantrazine is added to 1 ug/mL, and the cells were incubated for 2 hours at room temperature. Compounds were dissolved in DMSO for preparation of 10 mM stock solutions. Compounds were diluted in H/HBSS containing 0.01% HSA. Serial dilutions of the test compounds were prepared to determine dose response.
Aequorin luminescence measurements were made using an EG&G Berthold 96-well luminometer, and the response was measured over a 20 second interval after cells and compounds were mixed. The maximum relative light units was plotted to determine dose response. The EC50 (effective concentration to reach 50% maximal response) was determined from the dose response plot.

GPR40 [2] = biological target: T1, GPR40; assay: Inositol phosphate accumulation assay (A9 cell line stably transfected with GPR40); type: cell-based; set-up: expressed in transfected cells; details: human GPR40, A9_GPR40 cells, 1 hour at 37° C.; read-out: IP3 EC50 (inositol phosphate assay data)
Protocol: An A9 cell line stably transfected with GPR40 (A9_GPR40) was used in IP accumulation assays. A9_GPR40 cells were plated in 96-well plates containing 20,000 cells/well in DMEM containing 10% FBS. After the cells attached to the well surface, the media was replaced with inositol free DMEM containing 10% dialyzed FBS and 1 μCi, mL ^3H-inositol and incubated for 16 hours. Compounds were diluted in HBSS/10 mM LiCl containing a desired amount of HSA and added directly to cells. Following 1 hour incubation at 37° C., the media was replaced with 100 μl of 20 mM formic acid to quench the reaction. 50 μL of the extract was then added to 100 μL of SPA beads, incubated overnight, and measured on a TopCount the following day.

GPR40 [3] = biological target: T1, GPR40; assay: Competition binding assay on A9 membranes expressing GPR40; set-up: expressed in transfected cells; host or cells: membranes of A9 cells expressing GPR40; details: 5 nM [3H] labeled Comparative Compound 1, 4 hours at room temperature
Protocol: Competition binding assays were performed on A9 membranes expressing GPR40.

T1 sequence (O14842 whole entry): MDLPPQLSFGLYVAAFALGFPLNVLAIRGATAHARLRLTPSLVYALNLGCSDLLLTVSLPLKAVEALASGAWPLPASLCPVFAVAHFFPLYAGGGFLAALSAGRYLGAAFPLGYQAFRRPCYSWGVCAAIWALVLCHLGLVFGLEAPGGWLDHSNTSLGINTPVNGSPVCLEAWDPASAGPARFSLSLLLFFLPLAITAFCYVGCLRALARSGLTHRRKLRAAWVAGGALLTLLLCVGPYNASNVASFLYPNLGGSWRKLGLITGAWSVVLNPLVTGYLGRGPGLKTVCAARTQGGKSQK

SMILES	pEC50 (GPR40 [1])	pEC50 (GPR40 [2])	displacement of 3H-labeled Comparative Compound 1 (GPR40 [3])	effect on binding of the radioligand (3H-labeled Comparative Compound 1) to the receptor (GPR40 [3])
COc1ccc(F)c(-c2ccc(COc3ccc4c(c3)[C@@H](C(C)C(=O)O)CC4)cc2C(C)(C)C)c1 (single isomer, unassigned) [Example 7, (S)-2-(6-(3-t-Butyl-4-(2-fluoro-5-methoxyphenyl)benzyloxy)-2,3-dihydro-1H-inden-1-yl)propanoic acid or (R)-2-(6-(3-t-butyl-4-(2-fluoro-5-methoxyphenyl)benzyloxy)-2,3-dihydro-1H-inden-1-yl)propanoic acid]	6.00 to 7.00	6.00 to 7.00	–	–
COc1ccc(F)c(-c2ccc(COc3ccc4c(c3)[C@@H](CC(=O)O)CC4)cc2C(C)(C)C)c1 (single isomer, unassigned) [Example 1, ((1R)-6-(((2-(1,1-Dimethylethyl)-2′-fluoro-5′-(methyloxy)-1,1′-biphenyl-4-yl)methyl)oxy)-2,3-dihydro-1H-inden-1-yl)acetic acid or ((1S)-6-(((2-(1,1-Dimethylethyl)-2′-fluoro-5′-(methyloxy)-1,1′-biphenyl-4-yl)methyl)oxy)-2,3-dihydro-1H-inden-1-yl)acetic acid]	5.00 to 6.00	–	did not displace	enhanced the total binding; also recorded: enhanced the binding of the radioligand
COc1ccc(F)c(-c2ccc(COc3ccc4c(c3)[C@@](C)(CC(=O)O)CC4)cc2[C@@H](OC)C(C)(C)C)c1 (single isomer, unassigned) [Example 36, ((1R)-6-((2′-Fluoro-5′-methoxy-2-((1S)-1-methoxy-2,2-dimethylpropyl)-4-biphenylyl)methoxy)-1-methyl-2,3-dihydro-1H-inden-1-yl)acetic acid or ((1R)-6-((2′-fluoro-5′-methoxy-2-((1R)-1-methoxy-2,2-dimethylpropyl)-4-biphenylyl)methoxy)-1-methyl-2,3-dihydro-1H-inden-1-yl)acetic acid]	6.00 to 7.00	> 8.00	–	–
COc1cc(-c2cc(F)c(COc3ccc4c(c3)[C@@](C)(CC(=O)O)CC4)cc2[C@H]2CCCC2(C)C)c(F)cn1 (single isomer, unassigned) [Example 34, ((1R)-6-((5-((1S)-2,2-Dimethylcyclopentyl)-2-fluoro-4-(5-fluoro-2-methoxy-4-pyridinyl)benzyl)oxy)-1-methyl-2,3-dihydro-1H-inden-1-yl)acetic acid or ((1R)-6-((5-((1R)-2,2-dimethylcyclopentyl)-2-fluoro-4-(5-fluoro-2-methoxy-4-pyridinyl)benzyl)oxy)-1-methyl-2,3-dihydro-1H-inden-1-yl)acetic acid]	6.00 to 7.00	> 8.00	–	–
COc1cc(-c2ccc(COc3ccc4c(c3F)C(C)(CC(=O)O)CC4)cc2C2CCCC2(C)C)c(F)cn1 [Example 40, {(S)-6-[3-((S)-2,2-Dimethyl-cyclopentyl)-4-(5-fluoro-2-methoxy-pyridin-4-yl)-benzyloxy]-7-fluoro-1-methyl-indan-1-yl}-acetic acid or stereoisomer thereof]	6.00 to 7.00	6.00 to 7.00	–	–
CC[C@]1(CC(=O)O)CCc2ccc(OCc3ccc(-c4cc(OC)ncc4F)c([C@H]4CCCC4(C)C)c3)cc21 (single isomer, unassigned) [Example 43]	6.00 to 7.00	7.00 to 8.00	–	–
CC[C@]1(CC(=O)O)CCc2ccc(OCc3ccc(-c4cc(OC)ccc4F)c([C@@H](OC)C(C)(C)C)c3)cc21 (single isomer, unassigned) [Example 45]	6.00 to 7.00	6.00 to 7.00	–	–
CCCCOc1cc(COc2ccc3c(c2)[C@@H](CC(=O)O)CC3)ccc1-c1cc(OC)ccc1F (single isomer, unassigned) [Example 17, ((1R)-6-(((2-(butyloxy)-2′-fluoro-5′-(methyloxy)-1,1′-biphenyl-4-yl)methyl)oxy)-2,3-dihydro-1H-inden-1-yl)acetic acid or ((1S)-6-(((2-(butyloxy)-2′-fluoro-5′-(methyloxy)-1,1′-biphenyl-4-yl)methyl)oxy)-2,3-dihydro-1H-inden-1-yl)acetic acid]	6.00 to 7.00	5.00 to 6.00	–	–
COc1ccc(F)c(-c2ccc(COc3ccc4c(c3)[C@H]([C@@H](C)C(=O)O)CC4)cc2C2=CCCC2(C)C)c1 [Example 14]	6.00 to 7.00	7.00 to 8.00	–	–
CC[C@]1(CC(=O)O)CCc2ccc(OCc3ccc(-c4cc(OC)ccc4F)c([C@@H](OC)C(C)(C)C)c3)cc21 (single isomer, unassigned) [Example 44]	6.00 to 7.00	7.00 to 8.00	–	–
COc1ccc(F)c(-c2ccc(COc3ccc4c(c3)[C@H]([C@@H](C)C(=O)O)CC4)cc2[C@H]2CCCC2(C)C)c1 [Example 15]	6.00 to 7.00	7.00 to 8.00	–	–

Now from value to compound, other results behind:

pEC50 (GPR40 [1])	pEC50 (GPR40 [2])	displacement of 3H-labeled Comparative Compound 1 (GPR40 [3])	SMILES	effect on binding of the radioligand (3H-labeled Comparative Compound 1) to the receptor (GPR40 [3])
6.00 to 7.00	7.00 to 8.00	–	COc1cc(-c2ccc(COc3ccc4c(c3)[C@@H](CC(=O)O)CCC4)cc2[C@H]2CCCC2(C)C)c(F)cn1 (single isomer, unassigned) [Example 46]	–
6.00 to 7.00	> 8.00	–	COc1cc(-c2ccc(COc3ccc4c(c3)[C@@](C)(CC(=O)O)CC4)cc2[C@@H](OC)C(C)(C)C)c(F)cn1 (single isomer, unassigned) [Example 37, 2-((1R)-6-(4-(5-Fluoro-2-methoxypyridin-4-yl)-3-((S)-1-methoxy-2,2-dimethylpropyl)benzyloxy)-1-methyl-2,3-dihydro-1H-inden-1-yl)acetic acid or 2-((1R)-6-(4-(5-fluoro-2-methoxypyridin-4-yl)-3-(R)-1-methoxy-2,2-dimethylpropyl)benzyloxy)-1-methyl-2,3-dihydro-1H-inden-1-yl)acetic acid]	–
6.00 to 7.00	7.00 to 8.00	–	COc1cc(-c2ccc(COc3ccc4c(c3F)[C@@](C)(CC(=O)O)CC4)cc2[C@@H](OC)C(C)(C)C)c(F)cn1 (single isomer, unassigned) [Example 39, {(R)-7-Fluoro-6-[4-(5-fluoro-2-methoxy-pyridin-4-yl)-3-((S)-1-methoxy-2,2-dimethyl-propyl)-benzyloxy]-1-methyl-indan-1-yl}-acetic acid or stereoisomer thereof]	–
6.00 to 7.00	7.00 to 8.00	–	COc1ccc(F)c(-c2ccc(COc3ccc4c(c3)[C@](C)(CC(=O)O)CC4)cc2[C@H]2CCCC2(C)C)c1 (single isomer, unassigned) [Example 18, {(S)-6-[2-((S)-2,2-Dimethyl-cyclopentyl)-2′-fluoro-5′-methoxy-biphenyl-4-ylmethoxy]-1-methyl-indan-1-yl}-acetic acid or diastereomer thereof]	–
6.00 to 7.00	7.00 to 8.00	–	COc1ccc(F)c(-c2ccc(COc3ccc4c(c3)[C@@H](C(C)(C)C(=O)O)CC4)cc2[C@H]2CCCC2(C)C)c1 (single isomer, unassigned) [Example 21]	–
6.00 to 7.00	7.00 to 8.00	–	CC[C@]1(CC(=O)O)CCc2ccc(OCc3ccc(-c4cc(OC)ccc4F)c([C@H]4CCCC4(C)C)c3)cc21 (single isomer, unassigned) [Example 42]	–
6.00 to 7.00	> 8.00	–	COc1ccc(F)c(-c2c(F)cc(COc3ccc4c(c3)[C@@](C)(CC(=O)O)CC4)cc2[C@H]2CCCC2(C)C)c1 (single isomer, unassigned) [Example 35, ((1R)-6-((2-((1S)-2,2-Dimethylcyclopentyl)-2′,6-difluoro-5′-methoxy-4-biphenylyl)methoxy)-1-methyl-2,3-dihydro-1H-inden-1-yl)acetic acid or ((1R)-6-((2-((1R)-2,2-dimethylcyclopentyl)-2′,6-difluoro-5′-methoxy-4-biphenylyl)methoxy)-1-methyl-2,3-dihydro-1H-inden-1-yl)acetic acid]	–
6.00 to 7.00	7.00 to 8.00	–	COc1cc(-c2ccc(COc3ccc4c(c3F)[C@@](C)(CC(=O)O)CC4)cc2[C@H]2CCCC2(C)C)c(F)cn1 (single isomer, unassigned) [Example 38, {(R)-6-[3-((S)-2,2-Dimethyl-cyclopentyl)-4-(5-fluoro-2-methoxy-pyridin-4-yl)-benzyloxy]-7-fluoro-1-methyl-indan-1-yl}-acetic acid or stereoisomer thereof]	–
6.00 to 7.00	> 8.00	–	COc1ccc(F)c(-c2ccc(COc3ccc4c(c3)[C@@](C)(CC(=O)O)CC4)cc2[C@@H]2CCCC2(C)C)c1 (single isomer, unassigned) [Example 19, {(R)-6-[2-((S)-2,2-Dimethyl-cyclopentyl)-2′-fluoro-5′-methoxy-biphenyl-4-ylmethoxy]-1-methyl-indan-1-yl}-acetic acid or diastereomer thereof]	–
